Patent publication US9592223B2, “Small molecule inhibitors of MALT1” (Cornell University, priority 2012, dated 2017)

How the values were obtained:
[1] = tested on: ABC-DLBCL MALT1 independent cell lines U2932 and HLY-1; assay: Growth inhibition, MALT1 independent ABC-DLBCL cell lines; format: cell-based, human; settings: increasing concentrations, single dose, 48 hr
Procedure: Endogenous MALT1 activity was evaluated by Western blotting for A20, BCL10 and CYLD; and NF-κB activation, by phospho-IκB-α and total IκB-α. Dependence on MALT1 proteolytic activity for proliferation was tested by 50[…]μM Z-VRPR-FMK treatment for 48 hr. […] The U2932 and HLY1 ABC-DLBCL cell lines harbor mutations in TAK1 and A20, which activate NF-κB signaling downstream of MALT1.
Cell proliferation was determined by ATP quantification using a luminescent method (CellTiter-Glo, Promega, Madison, Wis.) and Trypan blue dye-exclusion (Sigma, St. Louis, Mo.). Cell viability in drug-treated cells was normalized to their respective controls (fractional viability) and results are given as 1-fractional viability. […]
DLBCL cell lines were grown in exponential growth conditions during the 48 hr of treatment. Cell proliferation was determined by ATP quantification using a luminescent method (CellTiter-Glo, Promega, Madison, Wis.) and Trypan blue dye-exclusion (Sigma, St. Louis, Mo.). Luminescence was measured using the Synergy4 microplate reader (BioTek Instruments, Winooski, Vt.). Standard curves for each cell line were calculated by plotting the cell number (determined by the Trypan blue method) against their luminescence values and number of cells was calculated accordingly. […]

c-REL nuclear protein = assay: c-REL immunofluorescence in paraffinized xenograft tumor sections; format: in vivo, mice; settings: IP 25 mg/kg/day
Description: (§1) Animals were sacrificed 24 hr after the fourteenth injection.
Paraffin-embedded tumor xenografts were sectioned, dewaxed and submitted to antigen retrieval. For IF-P, Alexa Fluor-488 conjugated secondary antibodies from Invitrogen where used and cell nuclei where counterstained with DAPI. Fluorescent images were taken using an Axiovert 200M fluorescent microscope (Carl Zeiss Inc., Thornwood, N.Y.). Oberkochen, Germany). For IHC, biotin-conjugated secondary antibodies where used. Then avidin/biotin peroxidase was applied to the slides (Vector Laboratories). Color was developed with diaminobenzoate chromogen peroxidase substrate (Vector) and counterstained with hematoxilin-eosyn. Pictures were obtained using an AxioCam (Carl Zeiss Inc.) camera attached to an AxioSkop II light microscope (Carl Zeiss Inc.). Samples were reviewed by a pathologist.

cell cycle = assay: BrdU incorporation - DAPI staining cell cycle flow cytometry; format: cell-based; settings: increasing concentrations
Procedure: Cell proliferation was examined using the CFSE dilution assay by flow cytometry on viable cells at 48, 72 and 96 h. […] Trypan blue exclusion and apoptosis assessed by Annexin V^+ DAPI^− flow cytometry was measured every 48 hr for a period of 14 days.
To determine cell-cycle distribution, cells were analyzed by flow cytometry using pulse-BrdU (bromodeoxyuridine) incorporation with the APC BrdU Flow Kit (BD Pharmingen, San Jose, Calif.).

OCI-Ly1 xenografts = assay: OCI-Ly1 xenograft in NOD-SCID mice; format: in vivo; settings: IP 25 mg/kg/day
Procedure: as §1
Eight-week old male SCID NOD.CB17-Prkdc^scid/J mice were subcutaneously injected with low-passage 10^7 human HBL-1, TMD8 or OCI-Ly1 cells. Treatment was administered by intra-peritoneal injection. Tumor volume was monitored by three-weekly digital calipering. All procedures followed US NIH protocols and were approved by the Animal Institute Committee of the Weill Cornell Medical College.
Eight-week old male SCID NOD.CB17-Prkdc^scid/J mice were purchased from Jackson Laboratories (Bar Harbor, Minn.) and housed in a clean environment. Mice were subcutaneously injected with low-passage 10^7 human TMD8 or OCI-Ly1 cells in 50% matrigel (BD Biosciences, #354234). Treatment was initiated when tumors reached an average size of 120 mm^3 (17 days post-transplantation). Drugs were reconstituted in DMSO and stored at −80° C. until used and were administered by intra-peritoneal injection. Tumor volume was monitored by three-weekly digital calipering (Fisher Scientific, Thermo Scientific, Rockford, Ill.) and calculated using the formula (smallest diameter^2×largest diameter)/2. Data were expressed as mean±SEM, and differences were considered statistically significant at p<0.05 by paired Student's t-test. […]

[2] = tested on: MALT1^WT NF-κB activation; assay: NF-κB reporter assay in 293T cells, PMA/ionomycin, BCL10 and MALT1 WT; format: cell-based; settings: pre-treatment
Description: Antigen receptor-mediated NF-κB signaling partly depends on MALT1 activity (Ruefli-Brasse et al., 2003; Ruland et al., 2003). […] First, 293T cells were transfected with the NF-κB reporter vector (NF-κB)5-luc2CP-pGL4 (harboring 5 copies of the NF-κB consensus response element and a destabilized Firefly luciferase) and TK-pRL control together with plasmids expressing BCL10 and either MALT1^WT or MALT1^C464A. […] HBL-1 was transfected with the reporter construct (NF-κB)5-luc2CP-pGL4 and TK-pRL control.
Reporter assays were performed in 293T cells seeded at a density of 2×10^5 cells per well of a 12-well dish. 100 ng of (NF-κB)5-Luc2CP-pGL4 and 10 ng of TK-Renilla internal control plasmid were cotransfected along with 25 ng of the indicated plasmids (MIGR1-MALT1^WT or MIGR1-MALT1^C464A and pcDNA4-Flag-Bcl10) using Lipofectamine 2000 (Invitrogen). Lysates were submitted to dual luciferase assays following manufacturer's protocol (Promega). In HBL-1, 5 μg of (NF-κB)5-Luc2CP-pGL4 and 50 ng of TK-Renilla internal control plasmid per 5×10^6 cells were cotransfected using nucleofection (Amaxa, Lonza, Basel, Switzerland). Forty-eight hours after transfection, cells were plated at a density of 5×10^4 cells per well of a 24-well plate and treated as indicated. Lysates were submitted to dual luciferase assays following manufacturer's protocol (Promega).

## COCCOc1nc(-c2ccc(Cl)c(Cl)c2)n(-c2ccc(NC(=O)CCl)cc2)n1 [MI-2]
[1]
  growth inhibition: resistant
c-REL nuclear protein
  c-REL nuclear protein in tumors: reduced c-REL nuclear protein
Cell cycle
  cell cycle distribution: dose-dependent decrease in S phase
OCI-Ly1 xenografts; fourteen injections, p=0.47
  tumor growth vs. vehicle: no effect on the growth
OCI-Ly1 xenografts; p=1.0
  proliferation (Ki-67 staining): no difference
[2]
  NF-κB induction by PMA/ionomycin stimulation: significantly inhibited NF-κB induction
